Test results: the NIST ThermoML archive (doi:10.1016/j.fluid.2011.11.005)

Assay: excess molar enthalpy (molar enthalpy of mixing); xn = mol fraction of the nth substance listed
Conditions: 101 kPa, Liquid, Flow calorimetry

C1CCCCC1 [cyclohexane] + CCCCO
313.15 K
Conditions | excess molar enthalpy [kcal/mol]
x1 = 0.0505 | 0.0234
x1 = 0.1001 | 0.0459
x1 = 0.1505 | 0.0679
x1 = 0.2 | 0.0885
x1 = 0.2505 | 0.108
x1 = 0.2999 | 0.126
x1 = 0.3501 | 0.143
x1 = 0.4003 | 0.158
x1 = 0.4504 | 0.171
x1 = 0.5003 | 0.182
x1 = 0.55 | 0.19
x1 = 0.5995 | 0.195
x1 = 0.6499 | 0.197
x1 = 0.7 | 0.194
x1 = 0.7499 | 0.188
x1 = 0.7995 | 0.178
x1 = 0.8499 | 0.163
x1 = 0.8999 | 0.142
x1 = 0.9496 | 0.109

CCCCO [butan-1-ol] + Cc1ccccc1
excess molar enthalpy [kcal/mol]
Conditions | 298.15 K | 313.15 K
x2 = 0.0504 | 0.0245 | 0.0341
x2 = 0.0998 | 0.0498 | –
x2 = 0.0999 | – | 0.0685
x2 = 0.1501 | 0.0753 | 0.102
x2 = 0.2011 | 0.101 | 0.136
x2 = 0.251 | 0.125 | –
x2 = 0.2512 | – | 0.166
x2 = 0.2999 | 0.148 | –
x2 = 0.3 | – | 0.195
x2 = 0.3495 | 0.169 | –
x2 = 0.3496 | – | 0.221
x2 = 0.3998 | 0.189 | –
x2 = 0.4 | – | 0.243
x2 = 0.4509 | 0.207 | –
x2 = 0.4511 | – | 0.264
x2 = 0.5009 | 0.221 | –
x2 = 0.501 | – | 0.279
x2 = 0.5495 | 0.231 | –
x2 = 0.5496 | – | 0.291
x2 = 0.6009 | 0.239 | –
x2 = 0.601 | – | 0.299
x2 = 0.6509 | 0.242 | –
x2 = 0.6511 | – | 0.302
x2 = 0.6996 | 0.24 | –
x2 = 0.6998 | – | 0.298
x2 = 0.7512 | 0.234 | –
x2 = 0.7513 | – | 0.29
x2 = 0.7992 | 0.222 | 0.274
x2 = 0.85 | 0.203 | 0.249
x2 = 0.8993 | 0.174 | 0.21
x2 = 0.9493 | 0.124 | 0.143

CC(C)CC(C)(C)C [2,2,4-trimethylpentane] + CCCCO
313.15 K
Conditions | excess molar enthalpy [kcal/mol]
x1 = 0.0502 | 0.0251
x1 = 0.1001 | 0.0487
x1 = 0.1505 | 0.072
x1 = 0.2003 | 0.0939
x1 = 0.2505 | 0.115
x1 = 0.3001 | 0.134
x1 = 0.3504 | 0.152
x1 = 0.4001 | 0.167
x1 = 0.4499 | 0.181
x1 = 0.5008 | 0.192
x1 = 0.5501 | 0.2
x1 = 0.5999 | 0.205
x1 = 0.6498 | 0.207
x1 = 0.7 | 0.206
x1 = 0.75 | 0.201
x1 = 0.7996 | 0.193
x1 = 0.8502 | 0.179
x1 = 0.9001 | 0.159
x1 = 0.9506 | 0.125

CC1CCCCC1 [methylcyclohexane] + CCCCO
excess molar enthalpy [kcal/mol]
Conditions | 298.15 K | 313.15 K
x1 = 0.0498 | 0.0151 | 0.0212
x1 = 0.1 | 0.0301 | 0.0424
x1 = 0.1505 | 0.0449 | 0.0629
x1 = 0.2005 | 0.0588 | 0.0826
x1 = 0.2506 | 0.0725 | –
x1 = 0.2507 | – | 0.101
x1 = 0.3 | 0.0852 | 0.119
x1 = 0.3502 | 0.0974 | 0.135
x1 = 0.4002 | 0.109 | 0.15
x1 = 0.45 | – | 0.163
x1 = 0.4501 | 0.119 | –
x1 = 0.5006 | – | 0.174
x1 = 0.5007 | 0.127 | –
x1 = 0.5497 | 0.134 | 0.182
x1 = 0.6004 | 0.138 | 0.188
x1 = 0.6505 | 0.14 | 0.19
x1 = 0.6999 | 0.14 | –
x1 = 0.7 | – | 0.189
x1 = 0.7498 | 0.136 | 0.184
x1 = 0.7999 | 0.129 | –
x1 = 0.8 | – | 0.176
x1 = 0.8504 | 0.118 | 0.162
x1 = 0.8997 | 0.104 | 0.144
x1 = 0.9505 | 0.0814 | 0.112

C=CCCCC [hex-1-ene] + CCCCOCCCC
excess molar enthalpy [kcal/mol]
Conditions | 298.15 K | 313.15 K
x2 = 0.0503 | -0.000741 | -0.001
x2 = 0.1001 | -0.00139 | –
x2 = 0.15 | – | -0.00296
x2 = 0.1501 | -0.00258 | –
x2 = 0.2 | -0.0033 | -0.00382
x2 = 0.25 | -0.00402 | -0.00447
x2 = 0.2997 | – | -0.00497
x2 = 0.2998 | -0.00452 | –
x2 = 0.3502 | -0.00488 | –
x2 = 0.3503 | – | -0.0054
x2 = 0.3994 | -0.00519 | –
x2 = 0.3995 | – | -0.00566
x2 = 0.4502 | -0.00533 | –
x2 = 0.4503 | – | -0.00581
x2 = 0.4995 | -0.00543 | –
x2 = 0.4997 | – | -0.00586
x2 = 0.5494 | -0.00533 | –
x2 = 0.5495 | – | -0.00578
x2 = 0.5996 | -0.00511 | –
x2 = 0.5997 | – | -0.00557
x2 = 0.6491 | -0.0048 | –
x2 = 0.6493 | – | -0.00521
x2 = 0.7001 | -0.00437 | –
x2 = 0.7002 | – | -0.00468
x2 = 0.7491 | -0.00382 | –
x2 = 0.7492 | – | -0.00425
x2 = 0.7995 | -0.00296 | –
x2 = 0.7996 | – | -0.00361
x2 = 0.8501 | -0.00232 | -0.00284
x2 = 0.8996 | -0.00155 | -0.00203
x2 = 0.9504 | -0.000717 | -0.00108

C=CCCCC [hex-1-ene] + CCCCO
excess molar enthalpy [kcal/mol]
Conditions | 298.15 K | 313.15 K
x1 = 0.05 | 0.0104 | 0.0188
x1 = 0.1001 | – | 0.0398
x1 = 0.1002 | 0.0234 | –
x1 = 0.1505 | – | 0.0602
x1 = 0.1506 | 0.0372 | –
x1 = 0.2002 | – | 0.0812
x1 = 0.2003 | 0.0527 | –
x1 = 0.2499 | – | 0.102
x1 = 0.25 | 0.0676 | –
x1 = 0.3004 | – | 0.121
x1 = 0.3005 | 0.0829 | –
x1 = 0.3498 | – | 0.141
x1 = 0.35 | 0.0967 | –
x1 = 0.4 | – | 0.158
x1 = 0.4001 | 0.11 | –
x1 = 0.4498 | – | 0.174
x1 = 0.4499 | 0.123 | –
x1 = 0.5001 | – | 0.188
x1 = 0.5003 | 0.134 | –
x1 = 0.5501 | – | 0.198
x1 = 0.5503 | 0.143 | –
x1 = 0.5995 | – | 0.206
x1 = 0.5996 | 0.149 | –
x1 = 0.6504 | – | 0.21
x1 = 0.6505 | 0.154 | –
x1 = 0.7005 | – | 0.211
x1 = 0.7006 | 0.155 | –
x1 = 0.7498 | – | 0.207
x1 = 0.7499 | 0.153 | –
x1 = 0.8005 | – | 0.2
x1 = 0.8006 | 0.147 | –
x1 = 0.8503 | 0.138 | 0.187
x1 = 0.9002 | 0.123 | 0.166
x1 = 0.9501 | 0.0969 | 0.127

CC1CCCCC1 [methylcyclohexane] + CCCCOCCCC
excess molar enthalpy [kcal/mol]
Conditions | 298.15 K | 313.15 K
x2 = 0.0497 | 0.0055 | 0.00497
x2 = 0.1003 | 0.0103 | 0.00908
x2 = 0.1501 | 0.0137 | 0.0126
x2 = 0.1997 | 0.0165 | –
x2 = 0.1998 | – | 0.0153
x2 = 0.2501 | 0.0189 | 0.0175
x2 = 0.3002 | 0.0207 | 0.0193
x2 = 0.3499 | 0.0218 | –
x2 = 0.35 | – | 0.0203
x2 = 0.3993 | 0.0225 | –
x2 = 0.3994 | – | 0.0211
x2 = 0.45 | 0.0228 | –
x2 = 0.4501 | – | 0.0215
x2 = 0.4993 | 0.0226 | 0.0213
x2 = 0.5499 | 0.022 | –
x2 = 0.55 | – | 0.0207
x2 = 0.5999 | 0.021 | –
x2 = 0.6 | – | 0.0197
x2 = 0.6491 | 0.0196 | –
x2 = 0.6492 | – | 0.0184
x2 = 0.6997 | 0.0177 | 0.0168
x2 = 0.7493 | 0.0156 | 0.0147
x2 = 0.8002 | 0.0131 | 0.0123
x2 = 0.8501 | 0.0103 | 0.00966
x2 = 0.9001 | 0.00707 | 0.00674
x2 = 0.95 | 0.00356 | –
x2 = 0.9501 | – | 0.00339
